Measurements taken from patent publication US8609414B2, “Isolation and growth of stem cells from hemangiomas” (priority 2007, dated 2013).

Tested on: hemangioma tumor spheres
Conditions: DMEM/F12 + 50 μg/ml VEGF + NEAA
Procedure: Another key property of stem cells is their ability to differentiate into mature cells. To assess whether hemangioma tumor sphere cells are able to differentiate into mature cells, tumor cells were cultured in appropriate growth factors.

VEGF
differentiation of hemangioma tumor sphere cells into mature cells (72 hours): differentiated into the endothelial-like tissue
time to changes in cell morphology (phase-contrast microscopy): ≤ 24 hours
